From the supplement of paper PMC4862054

Experiments:
Details in all cases: incubation time: 72 h
MDA-MB-468 [1] = experiment: drug sensitivity score (DSS), CellTox Green (DSS (AUC-based score)); higher = stronger drug effect (viability inhibition or cytotoxicity); extreme values may be limits of the assay
Method in brief: (§1)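 The drug sensitivity score was computed from the area under the fitted dose-response curve. Breast cancer cell lines in 20 µl suspension went into 384-well plates holding compound at 5 concentrations (10-fold steps over a 10,000-fold, compound-specific range) for 72 h of incubation. CellTox Green fluorescence (485/520 nm) was read before CellTiter-Glo luminescence, the latter after 10 min at room temperature, and each plate was normalised to 0.1 % DMSO and a positive kill control.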

HCC1937 [2] = experiment: as above
Method in brief: as §1

MDA-MB-231 [3] = experiment: as above
Method in brief: as §1

MDA-MB-436 [4] = experiment: as above
Method in brief: as §1

HCC1599 [5] = experiment: as above
Method in brief: as §1

CAL-85-1 [6] = experiment: as above
Method in brief: as §1

MFM-223 = experiment: as above
Method in brief: as §1

MCF-10A = experiment: as above
Method in brief: as §1

MDA-MB-468 [7] = experiment: normalised viability (% of control), CellTiter-Blue; higher = more viable cells (about 100 = DMSO control)
Method in brief: (§2)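 Each entry is normalised viability at a single listed concentration within a series. It comes from breast cancer cell lines incubated 72 h with compound in 384-well plates, then measured with CellTiter-Blue fluorescence at 560/590 nm. Every plate was normalised between vehicle (100) and a positive kill control (0).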

HCC1143 = experiment: as above
Method in brief: as §2

HCC1937 [8] = experiment: as above
Method in brief: as §2

MDA-MB-231 [9] = experiment: as above
Method in brief: as §2

CAL-148 = experiment: as above
Method in brief: as §2

HDQ-P1 = experiment: as above
Method in brief: as §2

MDA-MB-436 [10] = experiment: as above
Method in brief: as §2

HCC1599 [11] = experiment: as above
Method in brief: as §2

CAL-120 = experiment: as above
Method in brief: as §2

Hs578T = experiment: as above
Method in brief: as §2

SK-BR-3 = experiment: as above
Method in brief: as §2

CAL-85-1 [12] = experiment: as above
Method in brief: as §2

DU-4475 = experiment: as above
Method in brief: as §2

MDA-MB-453 = experiment: as above
Method in brief: as §2

## CNC(=O)c1ccc(N2C(=S)N(c3ccc(C#N)c(C(F)(F)F)c3)C(=O)C23CCC3)cc1F [RD162]
MDA-MB-468 [1]
  drug sensitivity score: 0
HCC1937 [2]
  drug sensitivity score: 0
MDA-MB-231 [3]
  drug sensitivity score: 0
MDA-MB-436 [4]
  drug sensitivity score: 0
HCC1599 [5]
  drug sensitivity score: 0
CAL-85-1 [6]
  drug sensitivity score: 0
MFM-223
  drug sensitivity score: 0
MCF-10A
  drug sensitivity score: 0

## Oc1ccc2c(c1)CC[C@H](c1ccccc1)[C@@H]2c1ccc(OCCN2CCCC2)cc1 [Lasofoxifene]
MDA-MB-468 [1]
  drug sensitivity score: 0
HCC1937 [2]
  drug sensitivity score: 0
MDA-MB-231 [3]
  drug sensitivity score: 0
MDA-MB-436 [4]
  drug sensitivity score: 0
HCC1599 [5]
  drug sensitivity score: 0
CAL-85-1 [6]
  drug sensitivity score: 3.43
MFM-223
  drug sensitivity score: 0
MCF-10A
  drug sensitivity score: 0
MDA-MB-468 [7]; 1 nM
  normalised viability: 95%
MDA-MB-468 [7]; 100 nM
  normalised viability: 95.8%
MDA-MB-468 [7]; 1000 nM
  normalised viability: 94.4%
HCC1143; 1 nM
  normalised viability: 86%
HCC1143; 100 nM
  normalised viability: 104%
HCC1143; 1000 nM
  normalised viability: 95.6%
HCC1937 [8]; 1 nM
  normalised viability: 88.6%
HCC1937 [8]; 100 nM
  normalised viability: 109%
HCC1937 [8]; 1000 nM
  normalised viability: 121%
MDA-MB-231 [9]; 1 nM
  normalised viability: 93.1%
MDA-MB-231 [9]; 100 nM
  normalised viability: 95.2%
MDA-MB-231 [9]; 1000 nM
  normalised viability: 95.3%
CAL-148; 0.3 nM
  normalised viability: 95.9%
CAL-148; 3 nM
  normalised viability: 104%
CAL-148; 10 nM
  normalised viability: 102%
HDQ-P1; 0.3 nM
  normalised viability: 97.7%
HDQ-P1; 3 nM
  normalised viability: 114%
HDQ-P1; 10 nM
  normalised viability: 101%
MDA-MB-436 [10]; 1 nM
  normalised viability: 95.5%
MDA-MB-436 [10]; 100 nM
  normalised viability: 84.3%
MDA-MB-436 [10]; 1000 nM
  normalised viability: 101%
HCC1599 [11]; 1 nM
  normalised viability: 96%
HCC1599 [11]; 100 nM
  normalised viability: 81.4%
HCC1599 [11]; 1000 nM
  normalised viability: 103%
CAL-120; 1 nM
  normalised viability: 77.6%
CAL-120; 100 nM
  normalised viability: 87.8%
CAL-120; 1000 nM
  normalised viability: 95.8%
Hs578T; 1 nM
  normalised viability: 108%
Hs578T; 100 nM
  normalised viability: 103%
Hs578T; 1000 nM
  normalised viability: 118%
SK-BR-3; 1 nM
  normalised viability: 108%
SK-BR-3; 100 nM
  normalised viability: 98.4%
SK-BR-3; 1000 nM
  normalised viability: 101%
CAL-85-1 [12]; 0.3 nM
  normalised viability: 83.5%
CAL-85-1 [12]; 3 nM
  normalised viability: 82.5%
CAL-85-1 [12]; 10 nM
  normalised viability: 93%
DU-4475; 0.3 nM
  normalised viability: 93.6%
DU-4475; 3 nM
  normalised viability: 91.9%
DU-4475; 10 nM
  normalised viability: 88.8%
MDA-MB-453; 0.3 nM
  normalised viability: 115%
MDA-MB-453; 3 nM
  normalised viability: 98.3%
MDA-MB-453; 10 nM
  normalised viability: 98.9%

## C=C1C[C@@H]2[C@H](CC[C@]3(C)C(=O)CC[C@@H]23)[C@@]2(C)C=CC(=O)C=C12 [Exemestane]
MDA-MB-468 [1]
  drug sensitivity score: 0
HCC1937 [2]
  drug sensitivity score: 0
MDA-MB-231 [3]
  drug sensitivity score: 0
MDA-MB-436 [4]
  drug sensitivity score: 0
HCC1599 [5]
  drug sensitivity score: 0
CAL-85-1 [6]
  drug sensitivity score: 1.08
MFM-223
  drug sensitivity score: 0
MCF-10A
  drug sensitivity score: 0
MDA-MB-468 [7]; 10 nM
  normalised viability: 109%
MDA-MB-468 [7]; 1000 nM
  normalised viability: 112%
MDA-MB-468 [7]; 10000 nM
  normalised viability: 96.5%
HCC1143; 10 nM
  normalised viability: 88.7%
HCC1143; 1000 nM
  normalised viability: 97.8%
HCC1143; 10000 nM
  normalised viability: 82.8%
HCC1937 [8]; 10 nM
  normalised viability: 87.7%
HCC1937 [8]; 1000 nM
  normalised viability: 88.3%
HCC1937 [8]; 10000 nM
  normalised viability: 87.8%
MDA-MB-231 [9]; 10 nM
  normalised viability: 101%
MDA-MB-231 [9]; 1000 nM
  normalised viability: 98.1%
MDA-MB-231 [9]; 10000 nM
  normalised viability: 124%
CAL-148; 3 nM
  normalised viability: 95.1%
CAL-148; 30 nM
  normalised viability: 88.7%
CAL-148; 100 nM
  normalised viability: 87%
HDQ-P1; 3 nM
  normalised viability: 94.5%
HDQ-P1; 30 nM
  normalised viability: 98.5%
HDQ-P1; 100 nM
  normalised viability: 97.1%
MDA-MB-436 [10]; 10 nM
  normalised viability: 112%
MDA-MB-436 [10]; 1000 nM
  normalised viability: 87.4%
MDA-MB-436 [10]; 10000 nM
  normalised viability: 96.2%
HCC1599 [11]; 10 nM
  normalised viability: 81.7%
HCC1599 [11]; 1000 nM
  normalised viability: 86.6%
HCC1599 [11]; 10000 nM
  normalised viability: 77%
CAL-120; 10 nM
  normalised viability: 96.1%
CAL-120; 1000 nM
  normalised viability: 92.7%
CAL-120; 10000 nM
  normalised viability: 84%
Hs578T; 10 nM
  normalised viability: 112%
Hs578T; 1000 nM
  normalised viability: 110%
Hs578T; 10000 nM
  normalised viability: 100%
SK-BR-3; 10 nM
  normalised viability: 85.2%
SK-BR-3; 1000 nM
  normalised viability: 101%
SK-BR-3; 10000 nM
  normalised viability: 79.3%
CAL-85-1 [12]; 3 nM
  normalised viability: 90.6%
CAL-85-1 [12]; 30 nM
  normalised viability: 81.8%
CAL-85-1 [12]; 100 nM
  normalised viability: 89.8%
DU-4475; 3 nM
  normalised viability: 95.1%
DU-4475; 30 nM
  normalised viability: 98%
DU-4475; 100 nM
  normalised viability: 79.4%
MDA-MB-453; 3 nM
  normalised viability: 103%
MDA-MB-453; 30 nM
  normalised viability: 87.3%
MDA-MB-453; 100 nM
  normalised viability: 97.8%
